Experimental data as given in article PMC11721817 (Toxicology Reports, 2024).

Experiments:
Wistar rats [1] = test: Superoxide dismutase activity in organ homogenates; assay type: in vivo, rat
[2] = test system: CT-26 (murine colorectal cancer cells); test: MTT cytotoxicity assay, CT-26; assay type: cell-based; conditions: Mus musculus, CT26, 24 h
Wistar rats [3] = test: Acute oral toxicity study; conditions: for change in body weight / food consumed by animals (weight) / change in organ weight, Kidney / change in organ weight, Liver / change in organ weight, Spleen: mean ± S.E.M, n = 5
Wistar rats [4] = test: Histopathological examination of liver, kidney and spleen; assay type: in vivo, rat; conditions: for Liver sections, histopathology / Spleen sections, histopathology: H&E
[5] = test system: HCT-116 (human colorectal cancer cells); test: MTT cytotoxicity assay, HCT-116; assay type: cell-based
HCT-116 cells [6] = test: DNA fragmentation, Hoechst staining, HCT-116; assay type: cell-based, human; conditions: HCT-116, 50 µM, 24 h
CT-26 cells [7] = test: DNA fragmentation, Hoechst staining, CT-26; assay type: cell-based, murine; conditions: CT-26, 50 µM, 24 h
Wistar rats [8] = test: Lipid peroxidation assay; assay type: in vivo, rat; conditions: 1000 mg/kg, compared to control
CT-26 cells [9] = test: Cell migration; assay type: cell-based, murine; conditions: 24 h, control = 100 %
red blood cells (RBCs) = test: Hemolysis assay; assay type: cell-based; conditions: rat blood, 10 μM, 25 μM, 50 μM, and 100 μM, compared to positive control
HCT-116 cells [10] = test: Cell migration; assay type: cell-based, human; conditions: 24 h, control = 100 %
Wistar rats [11] = test: Serum biochemistry after acute oral administration; conditions: n = 3; for Globulin: normal range 1.5–2.5, mean ± S.E.M; for A/G ratio: normal range 1.58–2.67, mean ± S.E.M; for Albumin: normal range 3.4–4.8, mean ± S.E.M; for Total protein: normal range 5.2–7.1, mean ± S.E.M; for SGPT (ALT): normal range 18–45, mean ± S.E.M; for ALP: normal range 62–230, mean ± S.E.M; for SGOT (AST): normal range 74–183, mean ± S.E.M

CC(C)(C)CC(C)(C)Nc1c(-c2ccc(-c3ccccc3)cc2)nc2cnccn12 [IG-01–008, 2-([1,1’-biphenyl]-4-yl)-N-(2,4,4-trimethylpentan-2-yl)imidazo[1,2-a]pyrazin-3-amine]
SOD level, spleen (Wistar rats [1]; 300 mg/kg, compared with control and 1 % DMSO): significant decrease seen in SOD level | SOD level, spleen (Wistar rats [1]; 1000 mg/kg, compared with IG-01–007 and IG-01–008 at 300 mg/kg): significant reduction of SOD level | SOD levels, kidney (Wistar rats [1]; 1000 mg/kg, compared with IG-01–007 at 300 mg/kg): SOD levels were significantly decreased | SOD level, spleen (Wistar rats [1]; 1000 mg/kg, compared with control and 1 % DMSO): significant decrease seen in SOD level | SOD levels, kidney (Wistar rats [1]; 1000 mg/kg, in comparison with 1 % DMSO): SOD levels significantly decreased | IC50 [2]: 48.1 ± 22.6 µM | change in body weight (Wistar rats [3]; 0 day, 300 mg/kg): 242 ± 5.1478 gm | food consumed by animals (weight) (Wistar rats [3]; 0 day, 300 mg/kg): 92.2 ± 0.374 gm | change in body weight (Wistar rats [3]; 0 day, 1000 mg/kg): 249 ± 8.124 gm | food consumed by animals (weight) (Wistar rats [3]; 0 day, 1000 mg/kg): 92.4 ± 1.166 gm | change in organ weight, Kidney (Wistar rats [3]; 300 mg/kg): 2.058 ± 0.123 gm | change in organ weight, Liver (Wistar rats [3]; 300 mg/kg): 6.21 ± 0.15 gm | change in organ weight, Spleen (Wistar rats [3]; 300 mg/kg): 0.83 ± 0.0763 gm | change in organ weight, Kidney (Wistar rats [3]; 1000 mg/kg): 1.954 ± 0.110 gm | change in organ weight, Liver (Wistar rats [3]; 1000 mg/kg): 6.74 ± 0.332 gm | change in organ weight, Spleen (Wistar rats [3]; 1000 mg/kg): 0.747 ± 0.1135 gm | body weight course (Wistar rats [3]; 7th and 14th day, 1000 mg/kg): gradual decrease in body weight | food consumption (Wistar rats [3]; 7th day, 300 mg/kg and 1000 mg/kg, compared to control): significant decrease in food consumption | change in body weight (Wistar rats [3]; 7th day, 300 mg/kg): 254 ± 6.595 gm | food consumed by animals (weight) (Wistar rats [3]; 7th day, 300 mg/kg): 86.2 ± 0.969 gm | change in body weight (Wistar rats [3]; 7th day, 1000 mg/kg): 236 ± 8.124 gm | food consumed by animals (weight) (Wistar rats [3]; 7th day, 1000 mg/kg): 83.2 ± 0.86 gm | food intake (Wistar rats [3]; 14th day, 300 mg/kg and 1000 mg/kg, compared to 1 % DMSO): significant reduction in food intake | food intake (Wistar rats [3]; 14th day, 300 mg/kg, compared to control): significant decrease in food intake | change in body weight (Wistar rats [3]; 14th day, 300 mg/kg): 257 ± 6.04 gm | food consumed by animals (weight) (Wistar rats [3]; 14th day, 300 mg/kg): 81.2 ± 0.916 gm | food intake (Wistar rats [3]; 14th day, 1000 mg/kg, compared to control): significant decrease in food intake | change in body weight (Wistar rats [3]; 14th day, 1000 mg/kg): 225 ± 8.366 gm | food consumed by animals (weight) (Wistar rats [3]; 14th day, 1000 mg/kg): 76 ± 1.702 gm | body weight (Wistar rats [3]; day 14th, 1000 mg/kg, compared to control): significantly lowered | toxicity signs (Wistar rats [3]; oral, 1000 mg/kg): toxicity signs were seen | tremors, change in eye and skin color (Wistar rats [3]; oral, 1000 mg/kg): tremors, change in eye and skin color was observed | Mortality (Wistar rats [3]; oral, 2000 mg/kg): Mortality was observed | Liver sections, histopathology (Wistar rats [4]; 300 mg/kg): mild steatosis and presence of micro and macro vesicles | Spleen sections, histopathology (Wistar rats [4]; 300 mg/kg): ill-defined spleen section | Liver sections, histopathology (Wistar rats [4]; 1000 mg/kg): moderate to severe fatty liver change with presence of sinusoidal spaces indicated by arrow and multi necrotic foci filled with mild hemorrhage | Spleen sections, histopathology (Wistar rats [4]; 1000 mg/kg): disrupt white pulp | toxicity in liver tissues (abstract) (Wistar rats [4]; doses of ≥ 1000 mg/kg): hepatic damage and cholestasis | cell viability ([5]; HCT-116, 10 μM and 25 μM): no significant reduction in cell viability | cytotoxicity ([5]; HCT-116, 50 μM and 100 μM): higher cytotoxicity compared to IG-01–007 | IC50 ([5]; Homo sapiens, HCT-116, 24 h): 30.9 ± 10.6 µM | DNA fragmentation (HCT-116 cells [6]): DNA fragmentation | DNA fragmentation (CT-26 cells [7]): DNA fragmentation | MDA levels, liver (Wistar rats [8]): significantly higher | migration percentages (CT-26 cells [9]; CT-26, 25 μM): 35.65% | migration percentages (CT-26 cells [9]; CT-26, 50 μM): 39.17% | hemolytic activity (red blood cells (RBCs)): did not show any hemolytic activity | % migration of cell (HCT-116 cells [10]; HCT-116, 25 μM): 36.33% | % migration of cell (HCT-116 cells [10]; HCT-116, 50 μM): 20.76% | Globulin (Wistar rats [11]; 300 mg/kg): 4.30 ± 0.529 g/dL | A/G ratio (Wistar rats [11]; 300 mg/kg): 0.736 ± 0.0523 | Albumin (Wistar rats [11]; 300 mg/kg): 3.166 ± 0.2905 g/dL | Total protein (Wistar rats [11]; 300 mg/kg): 7.266 ± 0.523 g/dL | SGPT (ALT) (Wistar rats [11]; 300 mg/kg): 60.33 ± 3.756 U/L | ALP (Wistar rats [11]; 300 mg/kg): 391.33 ± 9.261 U/L | SGOT (AST) (Wistar rats [11]; 300 mg/kg): 255 ± 5.291 U/L | Globulin (Wistar rats [11]; 1000 mg/kg): 4.35 ± 0.144 g/dL | A/G ratio (Wistar rats [11]; 1000 mg/kg): 0.923 ± 0.0648 | Albumin (Wistar rats [11]; 1000 mg/kg): 3.67 ± 0.2055 g/dL | Total protein (Wistar rats [11]; 1000 mg/kg): 7.60 ± 0.3183 g/dL | SGPT (ALT) (Wistar rats [11]; 1000 mg/kg): 79.0 ± 1.732 U/L | Triglycerides (Wistar rats [11]; 1000 mg/kg, normal range 20–114, mean ± S.E.M): 115.33 ± 5.487 mg% | ALP (Wistar rats [11]; 1000 mg/kg): 501.66 ± 13.64 U/L | SGOT (AST) (Wistar rats [11]; 1000 mg/kg): 302.33 ± 4.096 U/L
